From patent publication US20200108009A1, “BIOAVAILABLE AEROSOLIZED SUPPLEMENT FORMULATIONS AND METHODS THEREOF” (Inhale Health LLC, priority 2017, published 2020)

What was measured:
[1] = Serum vitamin B12 levels after inhalation of aerosolized sample (Example 7); assay type: in vivo; details: 75 minutes after initial inhalation
Method: An electronic inhaler device powered by a 4.2V, 320 mAh lithium-ion battery was used to aerosolize a sample containing vitamin B12 in organic vegetable glycerin and 1,3-propanediol and the aerosolized sample was inhaled by test subjects. The sample was heated to between 75 to 260° C. with a 3 ohm heating element in about 2 to about 3 second intervals with about 5 to about 10 second rest periods for a total of […]. The mixture contained 60% glycerin and 40% 1,3-propanediol to which 2 mg/ml vitamin B12 was added. Serum vitamin B12 levels were measured in the test subjects before inhalation of the aerosolized sample and 75 minutes after initial inhalation of the aerosolized sample. Before inhalation, serum B12 levels averaged 403.0 pg/ml.

[2] = healthy individuals, cited from earlier work

cobalamin [vitamin B12]
increase of serum B12 compared to levels before inhalation [1]: 5.4%
serum B12 levels after inhalation (average) ([1]; 2 mg/ml vitamin B12, before inhalation 403.0 pg/ml): 424.7 pg/mL
fraction of oral supplement absorbed ([2]; 500 mcg oral supplement): 2%
amount of oral supplement absorbed ([2]; of a 500 mcg oral supplement): about 10 mcg
